Like-named read-outs stand apart in the source and are kept apart here.
What was measured:
ATM kinase = molecular target: T1, ATM kinase (Homo sapiens, UniProt Q13315); experiment: In vitro ATM kinase assay (Cisbio HTRF, p53 substrate); type: biochemical; settings: 30 μM ATP; for inhibition at 0.0001 µM: Conc. 0.1 nM
T1 construct: purchased Eurofins 14-933
Protocol: Determination of the Inhibitory Effect In Vitro of the Compound of Example 2 and its Analogues on ATM Using In Vitro ATM Kinase Assay
ATM enzymatic activity was measured using Cisbio's HTRF reagent in a 384-well plate (Greiner, #784075). […] The mixtures were centrifuged at 1000 rpm for 1 minute, and reacted in dark for 30 minutes at room temperature. Then, 5 μL of EDTA termination solution (250 mm) was added to terminate the reaction. After 5 μL of detection mixture (Anti-phospho-p53 (ser15)-K (Cisbio, #61P08KAE, 0.084 ng/μL) and Anti-GST-d2 (Cisbio, #61GSTDLA, 5.00 ng/μL)) was finally added to each well, the mixtures were cultured at room temperature over night, and the fluorescence values at 665 nm and 615 nm were measured on Envision 2104. The final concentration of each reagent of the experiment was as follows: 12.5 mM HEPES (pH8.0), 0.5% glycerol, 0.005% Brij-35, 0.625 mM DTT, 0.0125% BSA, 15 nM p53, 0.25 ng/μL ATM, 30 μM ATP, 2.5 mM Mg(AcO)2, 2.5 mM MnCl2, 62.5 mM EDTA, 0.021 ng/μL Anti-phospho-p53, 1.25 ng/μL Anti-GST-d2.
Relative fluorescence ratio was calculated: Ratio665 nm/615 nm−Ratiobackground, and inhibition rate %=(1−(relative fluorescence ratio of test compound well−relative fluorescence ratio of positive control well)/(relative fluorescence ratio of negative control well−relative fluorescence ratio of positive control well))×100 was calculated. Data were analyzed using GraphPad Prism6.0 and fitted using the curve equation: Y=Bottom+(Top−Bottom)/(1+10^((Log IC50−X)*HillSlope)), and IC50 values were calculated.

[1] = tested on: human colon cancer cell SW620; experiment: MTT proliferation assay in combination with CPT-11, SW620; type: cell-based; settings: medium containing 205 nM CPT-11, 5 days, read-out: IC50, inhibition of proliferation of SW620 combined with CPT-11
Protocol: Determination of the Inhibitory Effect of the Compound of Example 2 and its Analogues in Combination with CPT-11 on the Proliferation of Human Colon Cancer Cell SW620 Using MTT Assay
The human colon cancer cells SW620 were cultured in RPMI 1640 medium with 10% FBS and used at about 90% confluence for experiments. The SW620 cells were digested with trypsinase and centrifuged at 800 rpm for 5 minutes. The supernatant was discarded and the cell pellets were resuspended with fresh medium (RPMI 1640+10% FBS). The cells were seeded into 96-well cell culture plates with appropriate cell density and incubated at 37° C. overnight in a 5% CO2 incubator. […] The first concentration was 1 μM or 0.333 μM, the last concentration was DMSO negative control (0 μM). 5 μL of solutions of each concentration was added to 120 μL of medium (a 25 times dilution) and mixed by shaking. The cells were cultured overnight and the culture medium was replaced with 195 μL/well of fresh medium containing 205 nM CPT-11 and 5 μL/well of medium containing the test compound (the final concentration of DMSO was 1%). The culture plates were returned to incubator and cultured at 37° C., 5% CO2 for 5 days. At the day of experiment, medium was discarded and replaced with 100 μL of fresh serum-free DMEM medium containing MTT (0.5 mg/mL), and the culture was continued. 4 hours later, the medium was discarded and replaced with 100 μL/well of DMSO, the plate was shaken for 10 minutes in dark and the absorbance was measured at the wavelengths of 552 and 690 nm using a multi-function plate reader. Data were analyzed by Graph Pad Prism 6.0. The inhibitory effects of compounds on cell proliferation were plotted based on cell viability vs. the logarithm of compound concentration. Cell viability %=(ODcompound−ODbackground)/(ODDMSO−ODbackground)×100.
Table 3 summarizes the inhibitory effect data (IC50) of some compounds combined with CPT-11 on the proliferation of human colon cancer cell SW620.

[2] = tested on: human breast cancer cell MDA-MB-468; experiment: MTT proliferation assay, MDA-MB-468; type: cell-based; settings: 7 days, single agent, read-out: IC50, inhibition of proliferation of MDA-MB-468
Protocol: Determination of the Inhibitory Effect of the Compound of Example 2 and its Analogues on the Proliferation of Human Breast Cancer Cell MDA-MB-468 Using MTT Assay
The human breast cancer cells MDA-MB-468 were cultured in RPMI 1640 medium with 10% FBS and used at 90% confluence. The MDA-IVB-468 cells were digested with trypsinase and centrifuged at 800 rpm for 5 minutes. The supernatant was discarded and the cell pellets were resuspended with fresh medium and counted. Cells were seeded to 96-well cell culture plates with appropriate cell density and incubated overnight at 37° C., 5% CO2. […] 5 μL of solutions of each concentration was added to 120 μL of medium (diluted by 25 times) and mixed by shaking. The culture medium of cells cultured overnight was discarded and replaced with 195 μL/well of fresh medium (RPMI 1640+5% FBS) and 5 μL/well of diluted medium containing the test compound of corresponding concentrations (the final concentration of DMSO was 1%), and the culture plate was then returned to 5% CO2 incubator at 37° C. for 7 days (on the fourth day, dressing was changed once and culture was continued). On the day of experiment, culture medium was discarded and replaced with 100 μL/well of fresh serum-free DMEM medium containing MTT (0.5 mg/mL), and the culture was continued. After 4 hours, medium was discarded and replaced with 100 μL/well of DMSO, the plates were shaken for 10 minutes in darkness and the absorbance was measured at the wavelengths of 552 and 693 nm using a multi-function plate reader. Graph Pad Prism 6.0 was used to analyze the data. The inhibitory effects of compounds on cell proliferation were plotted based on cell viability vs. the logarithm of compound concentration. Cell viability %=(ODcompound−ODbackground)/(ODDMSO−ODbackground)×100.
Table 4 summarizes the inhibitory effect data (IC50) of some compounds on the proliferation of human breast cancer cell MDA-MB-468.

[3] = Conc. 1 nM, read-out: Inh % (inhibitory effect on ATM kinase activity)
[4] = Conc. 10 nM, read-out: Inh % (inhibitory effect on ATM kinase activity)
[5] = Homo sapiens, MDA-MB-468, 168 h
[6] = read-out: Inh % (inhibitory effect on ATM kinase activity)

T1 sequence (Q13315 whole entry): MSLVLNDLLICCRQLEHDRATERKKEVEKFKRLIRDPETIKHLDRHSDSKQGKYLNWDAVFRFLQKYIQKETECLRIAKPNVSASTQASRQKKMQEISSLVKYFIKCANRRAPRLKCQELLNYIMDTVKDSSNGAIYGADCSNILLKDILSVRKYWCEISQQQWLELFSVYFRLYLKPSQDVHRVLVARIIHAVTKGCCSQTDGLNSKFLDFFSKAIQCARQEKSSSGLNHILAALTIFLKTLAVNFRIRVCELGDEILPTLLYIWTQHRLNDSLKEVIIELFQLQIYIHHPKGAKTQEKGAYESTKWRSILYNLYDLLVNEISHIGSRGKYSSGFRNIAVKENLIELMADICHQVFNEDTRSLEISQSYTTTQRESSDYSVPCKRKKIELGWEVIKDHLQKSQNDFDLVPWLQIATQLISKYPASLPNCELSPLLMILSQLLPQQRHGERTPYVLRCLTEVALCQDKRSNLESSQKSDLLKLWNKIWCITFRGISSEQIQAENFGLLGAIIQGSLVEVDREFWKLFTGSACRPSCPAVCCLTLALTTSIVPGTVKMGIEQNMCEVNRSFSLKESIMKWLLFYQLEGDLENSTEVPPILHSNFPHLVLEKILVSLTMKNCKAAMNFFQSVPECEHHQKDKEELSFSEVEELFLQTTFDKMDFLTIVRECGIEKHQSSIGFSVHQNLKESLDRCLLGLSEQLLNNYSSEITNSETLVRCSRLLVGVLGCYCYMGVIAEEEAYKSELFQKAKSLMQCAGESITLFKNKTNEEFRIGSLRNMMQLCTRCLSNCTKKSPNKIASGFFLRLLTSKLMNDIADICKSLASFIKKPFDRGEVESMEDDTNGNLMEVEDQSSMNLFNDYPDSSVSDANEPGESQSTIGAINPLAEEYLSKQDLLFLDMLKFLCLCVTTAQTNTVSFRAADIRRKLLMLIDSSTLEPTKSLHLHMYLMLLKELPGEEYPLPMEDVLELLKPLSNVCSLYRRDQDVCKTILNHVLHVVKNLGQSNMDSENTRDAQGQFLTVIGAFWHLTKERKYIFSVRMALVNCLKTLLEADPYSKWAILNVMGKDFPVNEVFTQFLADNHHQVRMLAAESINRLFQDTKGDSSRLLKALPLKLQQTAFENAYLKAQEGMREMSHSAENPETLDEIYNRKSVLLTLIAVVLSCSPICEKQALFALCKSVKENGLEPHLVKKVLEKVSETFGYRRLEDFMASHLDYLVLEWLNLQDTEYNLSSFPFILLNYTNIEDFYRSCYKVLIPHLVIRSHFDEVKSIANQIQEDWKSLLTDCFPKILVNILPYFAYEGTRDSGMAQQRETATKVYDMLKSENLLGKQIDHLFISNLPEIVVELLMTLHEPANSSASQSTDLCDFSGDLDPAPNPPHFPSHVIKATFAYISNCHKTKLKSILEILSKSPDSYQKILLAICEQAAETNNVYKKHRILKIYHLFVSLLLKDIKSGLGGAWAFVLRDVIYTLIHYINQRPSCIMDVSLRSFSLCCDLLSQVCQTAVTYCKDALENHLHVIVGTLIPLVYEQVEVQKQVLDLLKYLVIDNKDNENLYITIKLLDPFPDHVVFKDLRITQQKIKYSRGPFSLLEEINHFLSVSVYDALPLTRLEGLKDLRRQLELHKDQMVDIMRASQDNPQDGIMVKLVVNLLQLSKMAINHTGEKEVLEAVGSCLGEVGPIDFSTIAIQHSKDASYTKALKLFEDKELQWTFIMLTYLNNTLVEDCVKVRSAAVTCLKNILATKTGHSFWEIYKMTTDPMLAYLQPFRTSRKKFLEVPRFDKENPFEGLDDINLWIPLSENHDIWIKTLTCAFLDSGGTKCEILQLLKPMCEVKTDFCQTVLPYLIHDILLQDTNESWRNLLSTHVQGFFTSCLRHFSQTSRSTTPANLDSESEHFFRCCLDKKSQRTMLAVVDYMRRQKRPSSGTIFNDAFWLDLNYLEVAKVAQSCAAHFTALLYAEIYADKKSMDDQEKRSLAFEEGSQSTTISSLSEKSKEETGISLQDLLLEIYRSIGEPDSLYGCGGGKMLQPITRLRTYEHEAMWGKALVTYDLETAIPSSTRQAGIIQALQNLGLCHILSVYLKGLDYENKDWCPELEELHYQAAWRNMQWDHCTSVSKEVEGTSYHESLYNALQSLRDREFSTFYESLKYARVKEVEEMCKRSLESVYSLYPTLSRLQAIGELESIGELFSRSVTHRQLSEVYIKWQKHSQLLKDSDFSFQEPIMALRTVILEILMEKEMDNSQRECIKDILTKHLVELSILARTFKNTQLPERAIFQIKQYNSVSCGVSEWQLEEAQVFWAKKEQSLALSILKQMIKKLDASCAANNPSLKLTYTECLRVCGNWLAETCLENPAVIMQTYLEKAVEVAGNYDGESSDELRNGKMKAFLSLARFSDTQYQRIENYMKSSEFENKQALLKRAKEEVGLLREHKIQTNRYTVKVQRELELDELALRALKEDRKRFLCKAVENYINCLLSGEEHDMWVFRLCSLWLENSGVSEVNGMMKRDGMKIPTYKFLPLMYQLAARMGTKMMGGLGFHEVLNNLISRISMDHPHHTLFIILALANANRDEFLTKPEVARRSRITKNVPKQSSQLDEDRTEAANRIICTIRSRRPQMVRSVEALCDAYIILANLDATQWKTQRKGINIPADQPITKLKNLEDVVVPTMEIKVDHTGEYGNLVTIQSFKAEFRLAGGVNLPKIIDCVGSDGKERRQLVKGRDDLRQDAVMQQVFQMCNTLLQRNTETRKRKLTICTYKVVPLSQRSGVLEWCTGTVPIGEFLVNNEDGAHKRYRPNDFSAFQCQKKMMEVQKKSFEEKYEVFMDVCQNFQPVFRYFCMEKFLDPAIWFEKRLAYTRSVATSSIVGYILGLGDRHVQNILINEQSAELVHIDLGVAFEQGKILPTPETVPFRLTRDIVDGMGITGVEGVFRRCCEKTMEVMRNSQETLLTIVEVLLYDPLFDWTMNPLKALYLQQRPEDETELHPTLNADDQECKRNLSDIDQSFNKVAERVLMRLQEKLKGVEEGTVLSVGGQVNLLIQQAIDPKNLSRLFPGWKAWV

| Structure (SMILES) | IC50 [1] [nM] | inhibition at 0.01 µM (ATM kinase; [4]) [%] | IC50 [2, 5] [nM] | other results |
| --- | --- | --- | --- | --- |
| CN(C)CCCOc1ccc(-c2ccc3ncc4c(c3c2)n(C2CCOCC2)c(=O)n4C)cn1 [AZD0156, reference compound] | 9.8 | – | – | Inh % (inhibitory effect on ATM kinase activity) (ATM kinase; Conc. 1 nM): 90%; Inh % (inhibitory effect on ATM kinase activity) (ATM kinase; Conc. 10 nM): 95%; Inh % (inhibitory effect on ATM kinase activity) (ATM kinase; Conc. 100 nM): 100%; IC50 [2]: 9.87 nM |
| Cc1nc(C2CCOCC2)n2c1cnc1ccc(-c3ccc(OCCCN(C)C)nc3)cc12 [Example 2, N,N-dimethyl-3-((5-(3-methyl-1-(tetrahydro-2H-pyran-4-yl)imidazo[1,5-a]quinoxalin-8-yl)pyridin-2-yl)oxy)propan-1-amine] | 19.2 | 96 | 18.8 | inhibition at 0.0001 µM (ATM kinase; [6]): 45%; inhibition at 0.001 µM (ATM kinase; [3]): 59% |
| Cc1nc(C2CCOCC2)n2c1cnc1ccc(-c3ccc(OCCCN(C)C)c(F)c3)cc12 [Example 4, N,N-dimethyl-3-(2-fluoro-4-(3-methyl-1-(tetrahydro-2H-pyran-4-yl)imidazo[1,5-a]quinoxalin-8-yl)phenoxy)propan-1-amine] | 41.1 | 97 | 38.9 | – |
| Cc1nc(N2C[C@@H](C)O[C@@H](C)C2)n2c1cnc1ccc(-c3ccc(OCCc4c[nH]cn4)nc3)cc12 [Example 35, (2S,6R)-4-(8-(6-(2-(1H-imidazol-4-yl)ethoxy)pyridin-3-yl)-3-methylimidazo[1,5-a]quinoxalin-1-yl)-2,6-dimethylmorpholine] | 564 | – | 419 | – |
| C[C@@H]1CN(c2ncc3cnc4ccc(-c5ccc(N6CCC(N(C)C)CC6)nc5)cc4n23)C[C@H](C)O1 [Example 45, 1-(5-(1-((2S,6R)-2,6-dimethylmorpholino)imidazo[1,5-a]quinoxalin-8-yl)pyridin-2-yl)-N,N-dimethylpiperidin-4-amine] | 20.9 | – | 18.8 | – |
| Cc1nc(N2C[C@@H](C)O[C@@H](C)C2)n2c1cnc1ccc(-c3ccc(N(C)CCCN(C)C)nc3)cc12 [Example 47, N^1-(5-(1-((2S,6R)-2,6-dimethylmorpholino)-3-methylimidazo[1,5-a]quinoxalin-8-yl)pyridin-2-yl)-N^1,N^3,N^3-trimethylpropane-1,3-diamine] | 17.9 | – | 126 | – |
| Cc1nc(N2C[C@@H](C)O[C@@H](C)C2)n2c1cnc1ccc(-c3ccc(N4CCC(N5CCC5)CC4)nc3)cc12 [Example 52, (2S,6R)-4-(8-(6-(4-(azetidin-1-yl)piperidin-1-yl)pyridin-3-yl)-3-methylimidazo[1,5-a]quinoxalin-1-yl)-2,6-dimethylmorpholine] | 5.5 | – | 6.1 | – |
| Cc1nc(N2C[C@@H](C)O[C@@H](C)C2)n2c1cnc1ccc(-c3ccc(CCN4CCN(C)CC4)nc3)cc12 [Example 60, (2S,6R)-2,6-dimethyl-4-(3-methyl-8-(6-(2-(4-methylpiperazin-1-yl)ethyl)pyridin-3-yl)imidazo[1,5-a]quinoxalin-1-yl)morpholine] | > 1000 | – | 832 | – |
| Cc1nc(N2C[C@@H](C)O[C@@H](C)C2)n2c1cnc1ccc(-c3ccc(OCCCN(C)C)c(F)c3)cc12 [Example 61, 3-(4-(1-((2S,6R)-2,6-dimethylmorpholino)-3-methylimidazo[1,5-a]quinoxalin-8-yl)-2-fluorophenoxy)-N,N-dimethylpropan-1-amine] | 21.7 | – | 20.8 | – |

Further compounds by falling IC50 [1], results first:

| IC50 [1] [nM] | inhibition at 0.01 µM (ATM kinase; [4]) [%] | IC50 [2, 5] [nM] | Structure (SMILES) | other results |
| --- | --- | --- | --- | --- |
| 852 | – | 533 | CC(C)c1nc(N2C[C@@H](C)O[C@@H](C)C2)n2c1cnc1ccc(-c3ccc(OCCCN(C)C)nc3)cc12 [Example 42, 3-((5-(1-((2S,6R)-2,6-dimethylmorpholino)-3-isopropylimidazo[1,5-a]quinoxalin-8-yl)pyridin-2-yl)oxy)-N,N-dimethylpropan-1-amine] | – |
| 123 | 71 | 103 | CN(C)CCCOc1ccc(-c2ccc3ncc4cnc(C5CCOCC5)n4c3c2)cc1 [Example 1, N,N-dimethyl-3-(4-(1-(tetrahydro-2H-pyran-4-yl)imidazo[1,5-a]quinoxalin-8-yl)phenoxy)propan-1-amine] | inhibition at 0.001 µM (ATM kinase; [3]): 25%; inhibition at 0.1 µM (ATM kinase; Conc. 100 nM, read-out: Inh % (inhibitory effect on ATM kinase activity)): 96% |
| 43 | – | 34 | Cc1nc(N2C[C@@H](C)O[C@@H](C)C2)n2c1cnc1ccc(-c3ccc(OCCCN(C)C)c(Cl)c3)cc12 [Example 62, 3-(2-chloro-4-(1-((2S,6R)-2,6-dimethylmorpholino)-3-methylimidazo[1,5-a]quinoxalin-8-yl)phenoxy)-N,N-dimethylpropan-1-amine] | – |
| 40.2 | 98 | 29.1 | Cc1nc(C2CCOCC2)n2c1cnc1ccc(-c3ccc(OCCCN(C)C)cc3)cc12 [Example 3, N,N-dimethyl-3-(4-(3-methyl-1-(tetrahydro-2H-pyran-4-yl)imidazo[1,5-a]quinoxalin-8-yl)phenoxy)propan-1-amine] | – |
| 19.5 | 99 | 21.9 | Cc1nc(C2CCOCC2)n2c1cnc1ccc(-c3ccc(OCCCN(C)C)c(C(F)(F)F)c3)cc12 [Example 5, N,N-dimethyl-3-(4-(3-methyl-1-(tetrahydro-2H-pyran-4-yl)imidazo[1,5-a]quinoxalin-8-yl)-2-(trifluoromethyl)phenoxy)propan-1-amine] | inhibition at 0.0001 µM (ATM kinase; [6]): 47%; inhibition at 0.001 µM (ATM kinase; [3]): 97% |
| 12.6 | 99 | 11.6 | Cc1nc(C2CCOCC2)n2c1cnc1ccc(-c3ccc(N4CCC(N(C)C)CC4)c(F)c3)cc12 [Example 6, N,N-dimethyl-1-(2-fluoro-4-(3-methyl-1-(tetrahydro-2H-pyran-4-yl)imidazo[1,5-a]quinoxalin-8-yl)phenyl)piperidin-4-amine] | inhibition at 0.0001 µM (ATM kinase; [6]): 33%; inhibition at 0.001 µM (ATM kinase; [3]): 93% |

— patent US12653830B2, “Substituted imidazoquinoxaline compounds and uses thereof” (Impact Therapeutics (Shanghai), Inc, priority 2019, dated 2026)
